Experiments:
Test in all cases: Kinase panel enzymatic inhibition assay (Nanosyn)
Type in all cases: biochemical
CSK = molecular target: T1, CSK (Homo sapiens, UniProt P41240); conditions: compound 5 μM; ATP at Km; 30-minute pre-incubation
T1 construct: purchased Nanosyn (contract screening)
Method: (§1) The disclosed compounds were tested for activity against a panel of at least 300 kinases. Kinase panel screening was conducted by Nanosyn (Santa Clara, CA 95051) using an enzymatic inhibition assay accepted as valid by those skilled in the art (e.g., the Caliper LabChip® mobility shift assay, an ADP detection assay, or time-resolved fluorescence detection technology. Compounds were screened at a concentration of 5 μM using an ATP concentration at the Km for each of the respective kinases and a 30-minute pre-incubation time-point.
(§2) In Table 1 and 2, kinase inhibition is classified by: A=95% or greater, B=90%-94%, C=80%-89%, and D=79% and less with a compound concentration of 5 JIM. In Table 3 and 4, kinase inhibition is reported in terms of IC50 values corresponding to A=less than 500 nm, B=500 nm to less than 1 μM, C=1 μM to less than 10 μM, and D=10 μM or greater using a compound concentration of 5 μM.

DDR2 = molecular target: T2, DDR2 (Homo sapiens, UniProt Q16832); conditions: ATP at Km, 30-minute pre-incubation; for inhibition at 5 µM: compound 5 μM; for IC50: read-out: kinase inhibition in terms of IC50, DDR2
T2 construct: purchased Nanosyn (contract screening)
T2 sequence (Q16832 22-855): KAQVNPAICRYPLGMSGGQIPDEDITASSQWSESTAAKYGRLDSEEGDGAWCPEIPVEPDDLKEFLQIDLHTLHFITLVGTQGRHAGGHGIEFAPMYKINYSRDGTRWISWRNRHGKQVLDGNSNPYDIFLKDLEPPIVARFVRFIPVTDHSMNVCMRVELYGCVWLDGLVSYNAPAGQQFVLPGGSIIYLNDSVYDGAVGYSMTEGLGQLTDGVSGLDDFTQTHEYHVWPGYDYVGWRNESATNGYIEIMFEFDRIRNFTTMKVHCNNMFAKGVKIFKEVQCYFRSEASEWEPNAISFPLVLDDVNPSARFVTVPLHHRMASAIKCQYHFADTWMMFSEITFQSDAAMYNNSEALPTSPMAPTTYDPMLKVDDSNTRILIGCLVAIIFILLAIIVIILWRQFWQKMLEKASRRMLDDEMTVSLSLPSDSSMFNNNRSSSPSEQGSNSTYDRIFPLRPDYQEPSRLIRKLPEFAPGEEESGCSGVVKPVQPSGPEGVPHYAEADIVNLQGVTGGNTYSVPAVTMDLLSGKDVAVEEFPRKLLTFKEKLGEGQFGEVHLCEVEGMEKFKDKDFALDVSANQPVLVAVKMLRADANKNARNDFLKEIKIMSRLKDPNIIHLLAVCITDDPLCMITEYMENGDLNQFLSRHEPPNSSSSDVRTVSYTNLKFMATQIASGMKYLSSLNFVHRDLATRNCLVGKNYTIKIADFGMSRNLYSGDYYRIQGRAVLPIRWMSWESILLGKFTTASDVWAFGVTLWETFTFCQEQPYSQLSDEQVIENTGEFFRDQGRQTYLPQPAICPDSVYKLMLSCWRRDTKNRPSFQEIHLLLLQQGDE
Method: as §1, §2

BRAF = molecular target: T3, BRAF (Homo sapiens, UniProt P15056); conditions: compound 5 μM; ATP at Km; 30-minute pre-incubation
T3 construct: purchased Nanosyn (contract screening)
T3 sequence (P15056 whole entry): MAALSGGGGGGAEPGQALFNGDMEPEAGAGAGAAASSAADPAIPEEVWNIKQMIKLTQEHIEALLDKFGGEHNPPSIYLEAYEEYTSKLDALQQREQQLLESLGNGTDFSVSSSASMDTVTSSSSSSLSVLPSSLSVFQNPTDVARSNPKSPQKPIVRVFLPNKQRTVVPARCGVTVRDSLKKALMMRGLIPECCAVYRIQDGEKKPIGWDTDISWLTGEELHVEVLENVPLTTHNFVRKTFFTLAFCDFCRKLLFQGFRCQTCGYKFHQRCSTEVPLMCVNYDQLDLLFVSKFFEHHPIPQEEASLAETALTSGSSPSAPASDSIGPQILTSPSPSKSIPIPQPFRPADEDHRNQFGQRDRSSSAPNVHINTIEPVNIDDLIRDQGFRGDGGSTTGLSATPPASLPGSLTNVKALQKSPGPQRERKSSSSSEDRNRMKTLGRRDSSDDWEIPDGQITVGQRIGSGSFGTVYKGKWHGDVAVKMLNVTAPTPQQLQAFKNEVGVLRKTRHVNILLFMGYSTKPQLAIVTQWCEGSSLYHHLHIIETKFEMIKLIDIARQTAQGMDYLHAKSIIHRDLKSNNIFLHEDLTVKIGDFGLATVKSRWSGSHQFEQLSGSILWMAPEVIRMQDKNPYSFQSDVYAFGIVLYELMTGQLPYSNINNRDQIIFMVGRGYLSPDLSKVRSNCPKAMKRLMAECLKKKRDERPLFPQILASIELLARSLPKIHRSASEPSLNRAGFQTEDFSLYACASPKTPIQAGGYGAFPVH
Method: as §1, §2

ARAF = molecular target: T4, ARAF (Homo sapiens, UniProt P10398); conditions: compound 5 μM; ATP at Km; 30-minute pre-incubation
T4 construct: purchased Nanosyn (contract screening)
T4 sequence (P10398 1-606): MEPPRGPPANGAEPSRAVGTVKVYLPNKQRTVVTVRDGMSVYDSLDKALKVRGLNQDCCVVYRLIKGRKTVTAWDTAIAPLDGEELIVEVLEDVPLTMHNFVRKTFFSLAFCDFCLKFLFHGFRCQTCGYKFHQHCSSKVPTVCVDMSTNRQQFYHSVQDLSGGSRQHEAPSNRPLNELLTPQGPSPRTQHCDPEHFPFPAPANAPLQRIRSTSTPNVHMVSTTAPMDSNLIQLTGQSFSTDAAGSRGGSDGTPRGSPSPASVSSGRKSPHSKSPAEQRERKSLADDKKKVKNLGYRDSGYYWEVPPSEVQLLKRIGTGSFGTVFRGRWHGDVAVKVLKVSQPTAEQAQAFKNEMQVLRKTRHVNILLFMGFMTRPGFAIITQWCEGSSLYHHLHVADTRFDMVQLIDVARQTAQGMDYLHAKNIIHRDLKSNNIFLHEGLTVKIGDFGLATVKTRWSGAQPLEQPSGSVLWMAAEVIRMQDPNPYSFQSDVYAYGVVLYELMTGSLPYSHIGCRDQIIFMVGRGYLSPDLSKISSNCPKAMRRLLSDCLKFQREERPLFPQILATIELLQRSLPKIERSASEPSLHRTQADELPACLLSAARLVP
Method: as §1, §2

CRAF = molecular target: T5, CRAF (Homo sapiens, UniProt P04049); conditions: compound 5 μM; ATP at Km; 30-minute pre-incubation
T5 construct: purchased Nanosyn (contract screening)
T5 sequence (P04049 whole entry): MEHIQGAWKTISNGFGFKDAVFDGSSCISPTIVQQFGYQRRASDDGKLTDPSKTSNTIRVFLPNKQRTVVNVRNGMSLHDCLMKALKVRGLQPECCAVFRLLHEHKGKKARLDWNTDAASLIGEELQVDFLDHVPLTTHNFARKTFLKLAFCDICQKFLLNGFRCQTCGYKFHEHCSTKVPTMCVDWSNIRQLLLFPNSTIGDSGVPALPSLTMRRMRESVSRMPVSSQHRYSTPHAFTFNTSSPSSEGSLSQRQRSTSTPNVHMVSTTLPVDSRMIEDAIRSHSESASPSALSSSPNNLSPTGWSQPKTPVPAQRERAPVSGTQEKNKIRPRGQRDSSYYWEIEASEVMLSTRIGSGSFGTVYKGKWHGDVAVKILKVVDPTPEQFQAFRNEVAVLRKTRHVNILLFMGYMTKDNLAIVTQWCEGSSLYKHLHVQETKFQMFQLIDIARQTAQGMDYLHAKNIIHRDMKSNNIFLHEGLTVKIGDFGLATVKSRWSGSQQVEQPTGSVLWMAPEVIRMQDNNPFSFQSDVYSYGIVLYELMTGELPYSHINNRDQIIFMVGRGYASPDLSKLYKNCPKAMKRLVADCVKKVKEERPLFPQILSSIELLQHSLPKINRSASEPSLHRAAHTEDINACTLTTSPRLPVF
Method: as §1, §2

BLK = molecular target: T6, BLK (Homo sapiens, UniProt P51451); conditions: compound 5 μM; ATP at Km; 30-minute pre-incubation
T6 construct: purchased Nanosyn (contract screening)
T6 sequence (P51451 whole entry): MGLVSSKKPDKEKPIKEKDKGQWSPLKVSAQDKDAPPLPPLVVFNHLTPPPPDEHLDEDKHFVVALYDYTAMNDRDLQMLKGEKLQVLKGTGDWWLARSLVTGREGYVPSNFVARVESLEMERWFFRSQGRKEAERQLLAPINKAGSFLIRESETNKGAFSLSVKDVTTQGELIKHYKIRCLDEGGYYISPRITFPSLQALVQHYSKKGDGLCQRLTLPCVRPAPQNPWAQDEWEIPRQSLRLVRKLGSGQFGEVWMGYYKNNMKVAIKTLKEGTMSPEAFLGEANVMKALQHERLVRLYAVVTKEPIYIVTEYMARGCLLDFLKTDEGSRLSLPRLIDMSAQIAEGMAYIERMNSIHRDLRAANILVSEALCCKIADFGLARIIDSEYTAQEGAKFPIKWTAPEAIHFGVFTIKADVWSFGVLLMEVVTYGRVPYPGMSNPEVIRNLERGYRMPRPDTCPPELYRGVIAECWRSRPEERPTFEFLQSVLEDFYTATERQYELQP
Method: as §1, §2

CLK4 = molecular target: T7, CLK4 (Homo sapiens, UniProt Q9HAZ1); conditions: compound 5 μM; ATP at Km; 30-minute pre-incubation
T7 construct: purchased Nanosyn (contract screening)
T7 sequence (Q9HAZ1 whole entry): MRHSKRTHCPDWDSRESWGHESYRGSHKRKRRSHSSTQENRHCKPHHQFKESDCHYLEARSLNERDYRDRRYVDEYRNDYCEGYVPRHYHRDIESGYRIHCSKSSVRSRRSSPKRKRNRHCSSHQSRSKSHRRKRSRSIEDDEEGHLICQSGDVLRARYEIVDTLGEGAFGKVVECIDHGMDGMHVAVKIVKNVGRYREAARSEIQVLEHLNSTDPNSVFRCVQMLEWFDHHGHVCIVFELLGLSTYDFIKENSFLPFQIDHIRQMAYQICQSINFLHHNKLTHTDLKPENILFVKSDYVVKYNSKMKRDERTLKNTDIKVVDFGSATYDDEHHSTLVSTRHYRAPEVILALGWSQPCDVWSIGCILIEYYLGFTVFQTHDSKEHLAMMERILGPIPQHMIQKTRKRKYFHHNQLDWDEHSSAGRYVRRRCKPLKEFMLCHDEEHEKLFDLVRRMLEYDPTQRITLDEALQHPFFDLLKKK
Method: as §1, §2

MAP4K2 = molecular target: T8, MAP4K2 (Homo sapiens, UniProt Q12851); conditions: compound 5 μM; ATP at Km; 30-minute pre-incubation
T8 construct: purchased Nanosyn (contract screening)
T8 sequence (Q12851 1-820): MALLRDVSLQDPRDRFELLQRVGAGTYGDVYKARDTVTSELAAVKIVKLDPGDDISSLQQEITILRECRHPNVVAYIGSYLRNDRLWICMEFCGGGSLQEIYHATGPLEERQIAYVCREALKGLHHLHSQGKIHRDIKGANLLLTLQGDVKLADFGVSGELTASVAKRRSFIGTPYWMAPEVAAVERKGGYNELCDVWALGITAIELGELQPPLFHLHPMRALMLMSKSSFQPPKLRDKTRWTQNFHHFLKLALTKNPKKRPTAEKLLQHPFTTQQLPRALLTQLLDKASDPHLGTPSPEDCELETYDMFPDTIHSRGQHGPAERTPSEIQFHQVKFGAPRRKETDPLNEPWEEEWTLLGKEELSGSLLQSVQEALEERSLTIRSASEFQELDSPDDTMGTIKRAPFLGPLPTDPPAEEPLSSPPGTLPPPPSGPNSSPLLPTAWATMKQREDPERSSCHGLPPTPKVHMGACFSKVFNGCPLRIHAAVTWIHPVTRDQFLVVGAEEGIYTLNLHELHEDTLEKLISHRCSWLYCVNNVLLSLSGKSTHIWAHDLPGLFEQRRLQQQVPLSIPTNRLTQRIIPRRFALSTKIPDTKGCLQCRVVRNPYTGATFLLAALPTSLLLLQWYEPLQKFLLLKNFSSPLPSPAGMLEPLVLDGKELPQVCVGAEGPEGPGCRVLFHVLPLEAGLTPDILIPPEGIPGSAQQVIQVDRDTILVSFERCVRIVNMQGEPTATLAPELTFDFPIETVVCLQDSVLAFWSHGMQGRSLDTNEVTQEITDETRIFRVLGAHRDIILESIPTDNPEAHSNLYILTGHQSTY
Method: as §1, §2

inhibition at 5 µM (CSK)	inhibition at 5 µM (DDR2)	inhibition at 5 µM (BRAF)	inhibition at 5 µM (ARAF)	inhibition at 5 µM (CRAF)	inhibition at 5 µM (BLK)	inhibition at 5 µM (CLK4)	inhibition at 5 µM (MAP4K2)	IC50 (DDR2)	SMILES
< 79%	≥ 95%	≥ 95%	≥ 95%	≥ 95%	< 79%	< 79%	< 79%	–	Cc1ccc(NC(=O)c2cc(S(C)(=O)=O)n(-c3ccc(F)cc3)n2)cc1Nc1ccc2ncn(C)c(=O)c2c1 [Ex4, 1-(4-fluorophenyl)-N-(4-methyl-3-((3-methyl-4-oxo-3,4-dihydroquinazolin-6-yl)amino)phenyl)-5-(methylsulfonyl)-1H-pyrazole-3-carboxamide]
< 79%	< 79%	≥ 95%	≥ 95%	≥ 95%	< 79%	< 79%	< 79%	–	Cc1ccc(NC(=O)c2cc([S+](C)[O-])n(-c3ccc(F)cc3)n2)cc1Nc1ccc2ncn(C)c(=O)c2c1 (stereo not drawn) [Ex5, 1-(4-fluorophenyl)-N-(4-methyl-3-((3-methyl-4-oxo-3,4-dihydroquinazolin-6-yl)amino)phenyl)-5-(methylsulfinyl)-1H-pyrazole-3-carboxamide]
–	–	–	–	–	–	–	–	< 500 nM	COc1cc2nccc(Oc3ccc(NC(=O)c4cc(S(C)(=O)=O)n(-c5ccc(F)cc5)n4)cc3F)c2cc1OC [Ex73, N-(4-((6,7-dimethoxyquinolin-4-yl)oxy)-3-fluorophenyl)-1-(4-fluorophenyl)-5-(methylsulfonyl)-1H-pyrazole-3-carboxamide]

Second part, the molecule before the results:

SMILES	inhibition at 5 µM (CSK)	inhibition at 5 µM (DDR2)	inhibition at 5 µM (BRAF)	inhibition at 5 µM (ARAF)	inhibition at 5 µM (CRAF)	inhibition at 5 µM (BLK)	inhibition at 5 µM (CLK4)	inhibition at 5 µM (MAP4K2)	IC50 (DDR2)
Cc1ccc(NC(=O)c2cc([S+](C)[O-])n(-c3ccc(F)cc3)n2)cc1C#Cc1cnc2cccnn12 (stereo not drawn) [Ex6, 1-(4-fluorophenyl)-N-(3-(imidazo[1,2-b]pyridazin-3-ylethynyl)-4-methylphenyl)-5-(methylsulfinyl)-1H-pyrazole-3-carboxamide]	80 to 89%	< 79%	≥ 95%	< 79%	≥ 95%	80 to 89%	< 79%	< 79%	–
CNC(=O)c1cc(Oc2ccc(F)c(NC(=O)c3cc([S+](C)[O-])n(-c4ccc(F)cc4)n3)c2)ccn1 (stereo not drawn) [Ex7, 4-(4-fluoro-3-(1-(4-fluorophenyl)-5-(methylsulfinyl)-1H-pyrazole-3-carboxamido)phenoxy)-N-methylpicolinamide]	< 79%	< 79%	90 to 94%	< 79%	≥ 95%	< 79%	< 79%	< 79%	–
CSc1cc(C(=O)Nc2cc(Oc3ccnc(C(=O)NC4CNC4)c3)ccc2F)nn1-c1ccc(F)cc1 [Ex8, N-(azetidin-3-yl)-4-(4-fluoro-3-(1-(4-fluorophenyl)-5-(methylthio)-1H-pyrazole-3-carboxamido)phenoxy)picolinamide]	< 79%	< 79%	90 to 94%	< 79%	≥ 95%	< 79%	80 to 89%	80 to 89%	–
Cc1ccc(NC(=O)c2cc(S(C)(=O)=O)n(-c3ccc(F)cc3)n2)cc1-c1cc(OCCO)nc(N2CCOCC2)c1 [Ex9, 1-(4-fluorophenyl)-N-(3-(2-(2-hydroxyethoxy)-6-morpholinopyridin-4-yl)-4-methylphenyl)-5-(methylsulfonyl)-1H-pyrazole-3-carboxamide]	< 79%	90 to 94%	≥ 95%	≥ 95%	≥ 95%	< 79%	< 79%	< 79%	–
Cc1ccc(NC(=O)c2cc([S+](C)[O-])n(-c3ccc(F)cc3)n2)cc1-c1cc(OCCO)nc(N2CCOCC2)c1 (stereo not drawn) [Ex10, 1-(4-fluorophenyl)-N-(3-(2-(2-hydroxyethoxy)-6-morpholinopyridin-4-yl)-4-methylphenyl)-5-(methylsulfinyl)-1H-pyrazole-3-carboxamide]	< 79%	80 to 89%	≥ 95%	≥ 95%	≥ 95%	< 79%	< 79%	< 79%	–
Cc1ccc(NC(=O)c2cc([S+](C)[O-])n(-c3ccc(F)cc3)n2)cc1-c1cc(N2CCOCC2)c(=O)n(C)c1 (stereo not drawn) [Ex11, 1-(4-fluorophenyl)-N-(4-methyl-3-(1-methyl-5-morpholino-6-oxo-1,6-dihydropyridin-3-yl)phenyl)-5-(methylsulfinyl)-1H-pyrazole-3-carboxamide]	< 79%	< 79%	≥ 95%	≥ 95%	≥ 95%	< 79%	< 79%	< 79%	–
COc1cc2nccc(Oc3ccc(NC(=O)c4cc(S(C)(=O)=O)n(-c5ccc(F)cc5)n4)c(F)c3)c2cc1OC [Ex71, N-(4-((6,7-dimethoxyquinolin-4-yl)oxy)-2-fluorophenyl)-1-(4-fluorophenyl)-5-(methylsulfonyl)-1H-pyrazole-3-carboxamide]	–	–	–	–	–	–	–	–	< 500 nM

From patent publication US20240400577A1, “MODULATORS OF PROTEIN KINASES” (VIBLIOME THERAPEUTICS, LLC, priority 2021, published 2024)
